# According to patent publication US12162888B2, “Carboxamides as ubiquitin-specific protease inhibitors” (Valo Early Discovery, Inc., priority 2018, dated 2024):
# Biological target: T1, USP28 (His-tagged USP28-FL-mammalian) (Homo sapiens, UniProt Q96RU2)
# T1 construct: Expression of USP28 (1-1077)-TEV-6*His (pTT5 vector) was carried out in Expi293f cells; made in house; host or cells: Expi293F cells (pTT5 vector)
# T1 sequence (Q96RU2 1-1077): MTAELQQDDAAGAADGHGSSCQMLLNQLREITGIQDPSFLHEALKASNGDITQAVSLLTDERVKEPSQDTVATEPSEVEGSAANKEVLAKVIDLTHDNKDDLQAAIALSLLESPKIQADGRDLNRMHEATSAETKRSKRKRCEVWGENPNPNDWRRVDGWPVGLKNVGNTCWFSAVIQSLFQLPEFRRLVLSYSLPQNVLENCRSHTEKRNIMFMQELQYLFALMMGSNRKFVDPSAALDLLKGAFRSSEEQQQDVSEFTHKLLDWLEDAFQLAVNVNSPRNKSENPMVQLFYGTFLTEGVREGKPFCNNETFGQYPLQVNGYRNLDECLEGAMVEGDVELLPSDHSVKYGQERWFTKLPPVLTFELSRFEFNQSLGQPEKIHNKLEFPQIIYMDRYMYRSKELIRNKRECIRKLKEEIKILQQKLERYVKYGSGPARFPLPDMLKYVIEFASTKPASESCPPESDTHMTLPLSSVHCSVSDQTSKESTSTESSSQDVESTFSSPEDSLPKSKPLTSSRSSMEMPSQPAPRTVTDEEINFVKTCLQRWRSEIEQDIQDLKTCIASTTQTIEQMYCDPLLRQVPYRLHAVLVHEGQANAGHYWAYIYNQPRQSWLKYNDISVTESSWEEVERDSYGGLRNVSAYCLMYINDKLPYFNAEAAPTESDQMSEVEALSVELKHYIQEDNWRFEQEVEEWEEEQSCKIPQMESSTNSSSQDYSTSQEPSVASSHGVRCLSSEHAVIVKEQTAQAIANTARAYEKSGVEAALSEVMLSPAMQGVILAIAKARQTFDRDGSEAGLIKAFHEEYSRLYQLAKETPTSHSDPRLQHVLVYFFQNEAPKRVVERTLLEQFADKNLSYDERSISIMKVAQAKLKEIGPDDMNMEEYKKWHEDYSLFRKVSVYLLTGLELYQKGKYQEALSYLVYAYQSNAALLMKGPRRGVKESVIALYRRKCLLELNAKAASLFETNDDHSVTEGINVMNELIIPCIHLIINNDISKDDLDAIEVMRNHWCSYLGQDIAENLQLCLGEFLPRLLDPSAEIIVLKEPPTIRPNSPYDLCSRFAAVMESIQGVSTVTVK
# Experiment: Ubiquitin-Rhodamine 110 Assay for USP28 Activity, Example A-1(a)
# Assay type: biochemical
# Settings: Ubiquitin-Rhodamine 110 assay, read-out: USP28 A-1(a) IC50 range
# Summary of the method: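 IC50s were fitted with a 4-parameter logistic to percent inhibition relative to no-enzyme and DMSO controls, using Rhodamine 110 fluorescence (485/535 nm) released from 25 nM Ub-Rh110. The enzyme was Expi293F-expressed USP28-FL-His at […], preincubated 30 min with compound (10-point, 25 μM top) in Tris pH 8.0 buffer containing BGG and Triton X-100. Substrate turnover ran 45 min at room temperature and was stopped with 10 mM citric acid.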
row,SMILES,IC50
1,"Cc1ccc2c(N)c(C(=O)N[C@@H]3CCc4nc(N5C[C@@H](CF)[C@@H](N)C5)ncc4C3)sc2n1 [Example 445, 3-amino-N-[(6R)-2-[(3R,4R)-3-amino-4-(fluoromethyl)pyrrolidin-1-yl]-5,6,7,8-tetrahydroquinazolin-6-yl]-6-methylthieno[2,3-b]pyridine-2-carboxamide]",200 to 2000 nM
2,"CN[C@H]1CCN(c2ccc3c(c2)CC[C@H](NC(=O)c2sc4nc(C)cnc4c2N)C3)C1 (single isomer, unassigned) [Example 11-25]",50 to 200 nM
3,"Cc1ccc2c(N)c(C(=O)N[C@H]3COc4cc(N5CCNCC5)ccc4[C@@H]3C)sc2n1 (single isomer, unassigned) [Example 11-16]",> 2000 nM
4,"CO[C@H]1CN(c2ccc3c(c2)OC[C@H](NC(=O)c2sc4nc(C)sc4c2N)C3)CC1N (stereo partly drawn) [Example 118, 6-amino-N-[(3R)-7-[(3,4S)-3-amino-4-methoxypyrrolidin-1-yl]-3,4-dihydro-2H-1-benzopyran-3-yl]-2-methylthieno[2,3-d][1,3]thiazole-5-carboxamide]",50 to 200 nM
5,"Cc1ccc2c(N)c(C(=O)N[C@H]3COc4cc(N5C[C@H](N)[C@@]6(CCOC6)C5)ccc4C3)sc2n1 (single isomer, unassigned) [Example 439]",1 to 50 nM
6,"Cc1nc2sc(C(=O)N[C@H]3CCc4c(C#N)c(N5CC6CCC(C5)N6)cc(F)c4C3)c(N)c2s1 (single isomer, unassigned) [Example 14-21]",1 to 50 nM
7,"Cc1cnc2c(N)c(C(=O)N[C@H]3CCc4cc(N5C[C@@H]6C[C@H]5CN6)ccc4C3)sc2n1 (single isomer, unassigned) [Example 11-29]",50 to 200 nM
8,"Cc1ccc2c(N)c(C(=O)N[C@@H]3CCc4c(C#N)c(N5CC6CCC(C5)N6)cc(F)c4C3)sc2n1 (single isomer, unassigned) [Example 14-18]",50 to 200 nM
9,"Cc1ccc2c(N)c(C(=O)N[C@@H]3CCc4nc(N5C[C@H](CF)[C@H](N)C5)ncc4C3)sc2n1 [Example 446, 3-amino-N-[(6R)-2-[(3S,4S)-3-amino-4-(fluoromethyl)pyrrolidin-1-yl]-5,6,7,8-tetrahydroquinazolin-6-yl]-6-methylthieno[2,3-b]pyridine-2-carboxamide]",200 to 2000 nM
10,"CO[C@H]1CN(c2cc(F)c3c(c2C#N)CC[C@@H](NC(=O)c2sc4nc(C)ccc4c2N)C3)C[C@@H]1N (single isomer, unassigned) [Example 14-24]",200 to 2000 nM
11,"Cc1cnc2c(N)c(C(=O)N[C@@H]3CCc4cc(N5C[C@H]6C[C@@H]5CN6)ccc4C3)sc2n1 (single isomer, unassigned) [Example 11-32]",200 to 2000 nM
12,"Cc1nc2sc(C(=O)N[C@H]3CCc4cc(N5CCNCC5)ccc4C3)c(N)c2s1 (single isomer, unassigned) [Example 11-33]",200 to 2000 nM
13,"Cc1cnc2c(N)c(C(=O)N[C@@H]3CCc4cc(N5CCNCC5)c(F)cc4C3)sc2n1 (single isomer, unassigned) [Example 21-11]",200 to 2000 nM
14,"Cc1cnc2c(N)c(C(=O)N[C@@H]3CCc4c(ccc(N5CCNCC5)c4F)C3)sc2n1 (single isomer, unassigned) [Example 21-9]",50 to 200 nM
15,"COC[C@@]1(C)CN(c2ccc3c(n2)CC[C@H](NC(=O)c2sc4nc(C)ccc4c2N)C3)C[C@H]1N [Example 343, 3-amino-N-[(6S)-2-[(3S,4S)-4-amino-3-(methoxymethyl)-3-methylpyrrolidin-1-yl]-5,6,7,8-tetrahydroquinolin-6-yl]-6-methylthieno[2,3-b]pyridine-2-carboxamide]",50 to 200 nM
16,"Cc1ccc2c(N)c(C(=O)N[C@H]3COc4cc(N5CCNCC5)ccc4[C@H]3C)sc2n1 (single isomer, unassigned) [Example 11-15]",> 2000 nM
17,"Cc1ccc2c(N)c(C(=O)N[C@H]3COc4cc(N5C[C@H](CF)[C@H](N)C5)ccc4C3)sc2n1 (single isomer, unassigned) [Example 424]",1 to 50 nM
18,"Cc1ccc2c(N)c(C(=O)N[C@H]3CCc4cc(N5CCNCC5)ccc4C3)sc2n1 (single isomer, unassigned) [Example 11-21]",200 to 2000 nM
19,"[2H]C1([2H])c2c(F)cc(N3CCNCC3)cc2OC[C@H]1NC(=O)c1sc2nc(C)ccc2c1N (single isomer, unassigned) [Example 33-2]",200 to 2000 nM
20,"Cc1cnc2c(N)c(C(=O)N[C@H]3CCc4c(C#N)c(N5CCNCC5)cc(F)c4C3)sc2n1 (single isomer, unassigned) [Example 14-12]",200 to 2000 nM
21,"Cc1cnc2c(N)c(C(=O)N[C@H]3CCc4cc(N5CCNCC5)c(F)cc4C3)sc2n1 (single isomer, unassigned) [Example 21-12]",1 to 50 nM
22,"[2H]C1([2H])c2c(F)cc(N3CCNCC3)cc2OC[C@@H]1NC(=O)c1sc2nc(C)ccc2c1N (single isomer, unassigned) [Example 33-1]",1 to 50 nM
23,"Cc1cnc2c(N)c(C(=O)N[C@H]3CCc4c(C#N)c(N5CC6CCC(C5)N6)cc(F)c4C3)sc2n1 (single isomer, unassigned) [Example 14-19]",1 to 50 nM

# Same assay, conditions: biochemical IC50 range, Ubiquitin-Rhodamine 110 assay, read-out: USP28 A-1(a)
row,SMILES,IC50
1,"COC1CN(c2ccc3c(c2)CC[C@H](NC(=O)c2sc4nc(C)cnc4c2N)C3)CC1N (stereo in doubt) [Example 130, 7-amino-N-[(2S)-6-[(3S,4S)-3-amino-4-methoxypyrrolidin-1-yl]-1,2,3,4-tetrahydronaphthalen-2-yl]-3-methylthieno[2,3-b]pyrazine-6-carboxamide]",50 to 200 nM
2,"O=C(N[C@H]1COc2cc(N3CCNCC3)ccc2C1)c1ccc(NCc2cccc3cn[nH]c23)nc1 [Example 698, 6-{[(1H-indazol-7-yl)methyl]amino}-N-[(3R)-7-(piperazin-1-yl)-3,4-dihydro-2H-1-benzopyran-3-yl]pyridine-3-carboxamide]",200 to 2000 nM
3,"Cc1ccc2c(N)c(C(=O)N[C@H]3COc4cc(N5C[C@H](N)[C@@](C)(CF)C5)ccc4C3)sc2n1 [Example 659, 3-amino-N-[(3R)-7-[(3S,4R)-4-amino-3-(fluoromethyl)-3-methylpyrrolidin-1-yl]-3,4-dihydro-2H-1-benzopyran-3-yl]-6-methylthieno[2,3-b]pyridine-2-carboxamide]",1 to 50 nM
4,"CO[C@H]1CN(c2ccc3c(c2)CC[C@H](NC(=O)c2sc4nc(C)ccc4c2N)C3)C[C@H]1N [Example 144, 3-amino-N-[(2S)-6-[(3R,4S)-3-amino-4-methoxypyrrolidin-1-yl]-1,2,3,4-tetrahydronaphthalen-2-yl]-6-methylthieno[2,3-b]pyridine-2-carboxamide]",50 to 200 nM
5,"Cc1ccc2c(N)c(C(=O)N[C@H]3COc4cc(N5C[C@@H](N)[C@@](C)(CF)C5)ccc4C3)sc2n1 [Example 660, 3-amino-N-[(3R)-7-[(3S,4S)-4-amino-3-(fluoromethyl)-3-methylpyrrolidin-1-yl]-3,4-dihydro-2H-1-benzopyran-3-yl]-6-methylthieno[2,3-b]pyridine-2-carboxamide]",1 to 50 nM
6,"CN[C@H]1CN(c2ccc3c(c2)OC[C@H](NC(=O)c2sc4nc(C)ccc4c2N)C3)C[C@@H]1CF [Example 662, 3-amino-N-[(3R)-7-[(3S,4R)-3-(fluoromethyl)-4-(methylamino)pyrrolidin-1-yl]-3,4-dihydro-2H-1-benzopyran-3-yl]-6-methylthieno[2,3-b]pyridine-2-carboxamide]",1 to 50 nM
